Results reported in publication PMC3849192, “A Simple Method for Assessing Free Brain/Free Plasma Ratios Using an In Vitro Model of the Blood Brain Barrier” (PLoS ONE, 2013).
Where two headings read alike, the source gives them in different places.

How the values were obtained:
[1] = test system: in vitro BBB model (co-culture of bovine brain capillary endothelial cells and rat glial cells); test: In vitro BBB co-culture model, Cu,br/Cu,pl ratio
Procedure: Figure 1 Schematic diagram of the experimental protocol. After 12 days of coculture in cell culture medium, both compartments of the in vitro BBB model consisting of a coculture of brain capillary endothlial cells and rat primary glial cells were filled with Hepes-buffered Ringer’s solution and the compounds dissolved at 2 µM were added in the luminal compartment (i.e donor). The presence of glial cells in the abluminal compartment was used to reproduce the non specific binding to brain tisssue within the brain prenchyma in vivo. After 1 hour, aliquots were taken from both compartments. In vitro Cu,br/Cu,pl at 1 h were calculated by dividing the concentration in the abluminal compartment (∼Cu,br) by the concentration in the luminal compartment (∼Cu,pl) at 1 h. The experimental data at 1 h were computed using the blue-norna steady-state calculator to generate the in vitro steady-state Cu,br/Cu,pl.
One hour after the addition of compounds dissolved at 2 µM in the luminal (i.e upper) compartment, aliquots were taken from both compartments previously filled with Hepes-buffered Ringer’s solution at the beginning of the experiment. […] The concentrations in both compartments of the in vitro assay after 1 h were computed using […] blue-norna.com to generate the in vitro steady-state Cu,br/Cu,pl.
The method of Dehouck et al. was used with minor modifications (Fig. 1). Bovine brain endothelial cells isolated from capillary fragments were cocultured with primary mixed glial cells from newborn Sprague–Dawley rats. The glial cells were isolated according to the method of Booher and Sensenbrenner and cultured for 3 weeks, plated on the bottom of cell culture clusters containing six wells each. The endothelial cells were seeded onto collagen-coated polycarbonate cell culture inserts (4.7 cm^2) (Corning Incorp. NY, USA), which were placed in the wells containing glial cells. The medium used for the coculture was Dulbecco’s modified Eagle’s medium supplemented with 10% calf serum, 10% horse serum, 2 mmol/L glutamine, 50 mg/L gentamicin and 1 µg/L basic fibroblast growth factor (Sigma). The medium was changed every second day. Experiments were usually initiated after 12 days of co-culture.
To monitor the integrity of the endothelial cell monolayer, the marker molecule [^14C] sucrose was added to the solution at a concentration of 0.05 µCi/ml. At the start of the transport experiments, buffered Ringer’s solution (pH = 7.4) was added to wells with glial cells. Inserts with brain endothelial cells were placed in these wells and drug solutions at 2 µM were added to the donor compartment. The plates were incubated for 1 h in a polymix shaker at 37°C with a low shaking velocity. Aliquots were taken from the donor compartment in the beginning and at the end of the experiments. The receiver compartments were sampled at the end of the experiments.
The amount of radiotracer in the abluminal compartment was measured in a liquid scintillation analyser (Packard Instrument Company, Meriden, USA). […] The concentrations of the test compound in all samples were analysed by MS/MS.
The mean free brain/plasma ratios were calculated from three individual experiments. One hour ratios were calculated by dividing the drug concentration in the receiver compartment by the free drug concentration in the donor compartment after 1 h. The experimental data at one hour (i.e concentration in both compartment at the beginning of the experiment and after 1 h) were computed using the blue-norna® steady-state calculator (www.blue-norna.com) to predict the in vivo steady-state Cu,br/Cu,pl ratios. For further details on this calculation method see file S1.
The in vivo steady-state Cu,br/Cu,pl were predicted from the in vitro experimental data collected after one hour according to the following equation: […]
Cdonor, t and Creceiver, t are the concentration of drug in the donor and receiver chambers at time t.

[2] = Fraction unbound brain (fu,br), brain slice method
Procedure: Rats (male Sprague-Dawley) were decapitated under isoflurane anesthesia and the brains were removed carefully and immersed in ice-cold oxygenated physiological buffer at pH7.4. A 6 mm coronal section was cut with a razor and mounted with cyanoacrylate glue onto the tray of the microslicer (DTK-Zero 1 Microslicer, Dosak) after which six to eight 300 µm coronal slices from striatal areas were prepared. […] The compounds were dissolved at 1 µM in the buffer and the solution was incubated with the slice for 5 h.
After 5 h, the brain slices were weighed and homogenized in 9 volumes (w/v) of ECF buffer with a sonicator (SONICS VCX 500 and VCX 130). The slice homogenates in ECF buffer were stored at −20°C prior to analysis. The concentrations of the test compound in the brain slice homogenate and in the ECF buffer was determined by LC-MS/MS.
The unbound volume of distribution Vu,brain, or free fraction fu,brain was calculated according to the following equations: [drawing 1] [drawing 2] where Cslice, CECF and V0 are amount of drug in the slice, the drug concentration in the ECF (representing the drug concentration in the brain ECF, i.e. the free concentration), and the water adhesion of the brain slice. V0 has been estimated using ^14C -inulin in a separate experiment in which brain slices were incubated for 1, 2, and 4 min. V0 was obtained from brain slice uptake – inulin time profile (apparent zero-time intercept).

[3] = Fraction unbound brain (fu,br), brain homogenate equilibrium dialysis
Procedure: The degree of brain binding was assessed by equilibrium dialysis. Brain homogenate (10%) was spiked with test compound at 1 µM in triplicate. […] The plate was then placed in a shaker/incubator to equilibrate for 18 hrs at 37°C. […] After the addition of 50 µl of buffer to the brain homogenate samples, 150 µl of acetonitrile was added to each sample. Finally, 50 µl of water was added to all buffer and brain homogenate samples. The plates were centrifuged and the supernatant analyzed by LC-MS/MS.

[4] = 2 µM in luminal compartment, abluminal/luminal concentration at 1 h
[5] = steady-state ratio computed from 1 h data with the blue-norna steady-state calculator
[6] = rat brain slices 300 µm, 1 µM, 5 h incubation
[7] = brain homogenate (10%), 1 µM, equilibrium dialysis 18 hrs at 37°C

O=C(CCCN1CCC(O)(c2ccc(Cl)cc2)CC1)c1ccc(F)cc1 [Haloperidol]
In vitro Cu,br/Cu,pl Mean 1 h [1, 4]: 0.09
In vitro Cu,br/Cu,pl Mean steady-state [1, 5]: 0.70
fubrain (slice) Mean [2, 6]: 0.0140
fubrain (homog.) Mean [3, 7]: 0.0071

CC(C)(C)NC(=O)[C@@H]1CN(Cc2cccnc2)CCN1C[C@@H](O)C[C@@H](Cc1ccccc1)C(=O)N[C@H]1c2ccccc2C[C@H]1O [Indinavir]
In vitro Cu,br/Cu,pl Mean 1 h [1, 4]: 0.04
In vitro Cu,br/Cu,pl Mean steady-state [1, 5]: 0.10

CN(C)CCC=C1c2ccccc2CCc2ccccc21 [Amitriptyline]
In vitro Cu,br/Cu,pl Mean 1 h [1, 4]: 0.07
In vitro Cu,br/Cu,pl Mean steady-state [1, 5]: 0.59
fubrain (slice) Mean [2, 6]: 0.0060
fubrain (homog.) Mean [3, 7]: 0.0090

Cn1c(=O)c2c(ncn2C)n(C)c1=O [Caffeine]
In vitro Cu,br/Cu,pl Mean 1 h [1, 4]: 0.34
In vitro Cu,br/Cu,pl Mean steady-state [1, 5]: 0.55
fubrain (slice) Mean [2, 6]: 0.7100
fubrain (homog.) Mean [3, 7]: 0.5000

O=C1NC(=O)C(c2ccccc2)(c2ccccc2)N1 [Phenytoin]
In vitro Cu,br/Cu,pl Mean 1 h [1, 4]: 0.22
In vitro Cu,br/Cu,pl Mean steady-state [1, 5]: 0.44
fubrain (slice) Mean [2, 6]: 0.1200
fubrain (homog.) Mean [3, 7]: 0.0800

CNCCC(Oc1ccc(C(F)(F)F)cc1)c1ccccc1 (stereo not drawn) [Fluoxetine]
In vitro Cu,br/Cu,pl Mean 1 h [1, 4]: 0.10
In vitro Cu,br/Cu,pl Mean steady-state [1, 5]: 0.96
fubrain (slice) Mean [2, 6]: 0.0027
fubrain (homog.) Mean [3, 7]: 0.0023

NC(=O)N1c2ccccc2C=Cc2ccccc21 [Carbamazepine]
In vitro Cu,br/Cu,pl Mean 1 h [1, 4]: 0.25
In vitro Cu,br/Cu,pl Mean steady-state [1, 5]: 0.31
fubrain (slice) Mean [2, 6]: 0.2000
fubrain (homog.) Mean [3, 7]: 0.1160

Nc1nnc(-c2cccc(Cl)c2Cl)c(N)n1 [Lamotrigine]
In vitro Cu,br/Cu,pl Mean 1 h [1, 4]: 0.27
In vitro Cu,br/Cu,pl Mean steady-state [1, 5]: 0.43
fubrain (slice) Mean [2, 6]: 0.3600
fubrain (homog.) Mean [3, 7]: 0.2000

CN(C)CCCN1c2ccccc2Sc2ccc(Cl)cc21 [Chlorpromazine]
In vitro Cu,br/Cu,pl Mean 1 h [1, 4]: 0.06
In vitro Cu,br/Cu,pl Mean steady-state [1, 5]: 0.69
fubrain (slice) Mean [2, 6]: 0.0032
fubrain (homog.) Mean [3, 7]: 0.0008

NCC1(CC(=O)O)CCCCC1 [Gabapentin]
In vitro Cu,br/Cu,pl Mean 1 h [1, 4]: 0.06
In vitro Cu,br/Cu,pl Mean steady-state [1, 5]: 0.14
fubrain (slice) Mean [2, 6]: 0.2400
fubrain (homog.) Mean [3, 7]: 0.7820

CNCCC=C1c2ccccc2CCc2ccccc21 [Nortriptyline]
In vitro Cu,br/Cu,pl Mean 1 h [1, 4]: 0.08
In vitro Cu,br/Cu,pl Mean steady-state [1, 5]: 0.81
fubrain (slice) Mean [2, 6]: 0.0045
fubrain (homog.) Mean [3, 7]: 0.0046

OCCOCCN1CCN(C(c2ccccc2)c2ccc(Cl)cc2)CC1 (stereo not drawn) [Hydroxyzine]
In vitro Cu,br/Cu,pl Mean 1 h [1, 4]: 0.05
In vitro Cu,br/Cu,pl Mean steady-state [1, 5]: 0.47
fubrain (slice) Mean [2, 6]: 0.0170
fubrain (homog.) Mean [3, 7]: 0.0100

CCCC(C)(COC(N)=O)COC(=O)NC(C)C (stereo not drawn) [Carisoprodol]
In vitro Cu,br/Cu,pl Mean 1 h [1, 4]: 0.31
In vitro Cu,br/Cu,pl Mean steady-state [1, 5]: 0.61
fubrain (slice) Mean [2, 6]: 0.5600
fubrain (homog.) Mean [3, 7]: 0.2020

Nc1c2c(nc3ccccc13)CCCC2 [Tacrine]
In vitro Cu,br/Cu,pl Mean steady-state ([1]; bovine / rat, 2 µM, pH 7.4): 0.58
In vitro Cu,br/Cu,pl Mean 1 h ([1]; bovine / rat, 1 h, 2 µM, pH 7.4): 0.23
fubrain (slice) Mean ([2]; male, Sprague-Dawley, rat, 5 h, 1 µM): 0.1200
fubrain (homog.) Mean ([3]; 18 h, 1 µM): 0.1200

CNS(=O)(=O)Cc1ccc2[nH]cc(CCN(C)C)c2c1 [Sumatriptan]
In vitro Cu,br/Cu,pl Mean 1 h [1, 4]: 0.05
In vitro Cu,br/Cu,pl Mean steady-state [1, 5]: 0.05
fubrain (slice) Mean [2, 6]: 0.6100
fubrain (homog.) Mean [3, 7]: 0.4000

CSc1ccc2c(c1)N(CCC1CCCCN1C)c1ccccc1S2 (stereo not drawn) [Thioridazine]
In vitro Cu,br/Cu,pl Mean 1 h [1, 4]: 0.08
In vitro Cu,br/Cu,pl Mean steady-state [1, 5]: 0.68
fubrain (slice) Mean [2, 6]: 0.0017
fubrain (homog.) Mean [3, 7]: 0.0010

Cc1ccc(-c2nc3ccc(C)cn3c2CC(=O)N(C)C)cc1 [Zolpidem]
In vitro Cu,br/Cu,pl Mean 1 h [1, 4]: 0.25
In vitro Cu,br/Cu,pl Mean steady-state [1, 5]: 0.49
fubrain (slice) Mean ([2]; male, Sprague-Dawley, rat): 0.3500
fubrain (homog.) Mean [3]: 0.2000

NCC(CC(=O)O)c1ccc(Cl)cc1 (stereo not drawn) [Baclofen]
In vitro Cu,br/Cu,pl Mean 1 h [1, 4]: 0.05
In vitro Cu,br/Cu,pl Mean steady-state [1, 5]: 0.06
fubrain (slice) Mean [2, 6]: 0.5800
fubrain (homog.) Mean [3, 7]: 0.5000

CCN1CCCC1CNC(=O)c1cc(S(N)(=O)=O)ccc1OC (stereo not drawn) [Sulpiride]
In vitro Cu,br/Cu,pl Mean 1 h [1, 4]: 0.05
In vitro Cu,br/Cu,pl Mean steady-state [1, 5]: 0.09
fubrain (slice) Mean [2, 6]: 0.4400
fubrain (homog.) Mean [3, 7]: 0.6000

CN1CCN(CCCN2c3ccccc3Sc3ccc(C(F)(F)F)cc32)CC1 [Trifluoperazine]
In vitro Cu,br/Cu,pl Mean 1 h [1, 4]: 0.09
In vitro Cu,br/Cu,pl Mean steady-state [1, 5]: 0.71
fubrain (slice) Mean [2, 6]: 0.0007
fubrain (homog.) Mean [3, 7]: 0.0007
